Test results: PubChem BioAssay AID330 (DTP/NCI, 2004)
Inconclusive results and toxic doses are left out. Rule for the calls: active = survival T/C of 150% or more; inactive = T/C below 125% in these data.

Tested on: P388 leukemia ip, CD2F1 mice, survival T/C
Assay: NCI In Vivo Anticancer Drug Screen. Data for tumor model P388 Leukemia (intraperitoneal) in CD2F1 (CDF1) mice
Conditions: endpoint: median survival time, higher = longer survival
Method in brief: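 Mice carrying the transplanted tumor received test compound or vehicle. Survival was recorded in each group, and the value is the treated-group measurement divided by that of the vehicle-treated control group.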

[1] = dose: 50.0 mg/kg/injection, schedule: Q01DX005 (ip), vehicle: Klucel (hydroxypropylcellulose) (HPC)
[2] = dose: 100.0 mg/kg/injection, schedule: Q01DX005 (ip), vehicle: Klucel (hydroxypropylcellulose) (HPC)
[3] = dose: 200.0 mg/kg/injection, schedule: Q01DX005 (ip), vehicle: Klucel (hydroxypropylcellulose) (HPC)
[4] = dose: 60.0 mg/kg/injection, schedule: Q01DX005 (ip), vehicle: saline with Tween-80
[5] = dose: 120.0 mg/kg/injection, schedule: Q01DX005 (ip), vehicle: saline with Tween-80
[6] = dose: 240.0 mg/kg/injection, schedule: Q01DX005 (ip), vehicle: saline with Tween-80
[7] = dose: 50.0 mg/kg/injection, schedule: Q01DX009 (ip), vehicle: Klucel (hydroxypropylcellulose) (HPC)
[8] = dose: 100.0 mg/kg/injection, schedule: Q01DX009 (ip), vehicle: Klucel (hydroxypropylcellulose) (HPC)
[9] = dose: 200.0 mg/kg/injection, schedule: Q01DX009 (ip), vehicle: Klucel (hydroxypropylcellulose) (HPC)
[10] = dose: 100.0 mg/kg/injection, schedule: Q01DX001 (ip), vehicle: saline with Tween-80
[11] = dose: 50.0 mg/kg/injection, schedule: Q01DX005 (ip), vehicle: saline with Tween-80
[12] = dose: 100.0 mg/kg/injection, schedule: Q01DX005 (ip), vehicle: saline with Tween-80
[13] = dose: 200.0 mg/kg/injection, schedule: Q01DX005 (ip), vehicle: saline with Tween-80
[14] = dose: 60.0 mg/kg/injection, schedule: Q01DX005 (ip), vehicle: Klucel (hydroxypropylcellulose) (HPC)
[15] = dose: 120.0 mg/kg/injection, schedule: Q01DX005 (ip), vehicle: Klucel (hydroxypropylcellulose) (HPC)
[16] = dose: 240.0 mg/kg/injection, schedule: Q01DX005 (ip), vehicle: Klucel (hydroxypropylcellulose) (HPC)

Measured: T/C

COc1ccc([I+]c2ccccc2)cc1
inactive: dose: 1.5 mg/kg/injection, schedule: Q01DX009 (ip), vehicle: saline 109 % of control | dose: 2.5 mg/kg/injection, schedule: Q01DX009 (ip), vehicle: saline sonified 100 % of control | dose: 3.0 mg/kg/injection, schedule: Q01DX009 (ip), vehicle: saline 109 % of control | dose: 6.0 mg/kg/injection, schedule: Q01DX009 (ip), vehicle: saline 122 % of control

Cc1[nH]c(C)c(Cl)c(=O)c1Cl
inactive: dose: 6.25 mg/kg/injection, schedule: Q01DX009 (ip), vehicle: Klucel (hydroxypropylcellulose) (HPC) 98 % of control | dose: 12.5 mg/kg/injection, schedule: Q01DX009 (ip), vehicle: Klucel (hydroxypropylcellulose) (HPC) 100 % of control | dose: 25.0 mg/kg/injection, schedule: Q01DX009 (ip), vehicle: Klucel (hydroxypropylcellulose) (HPC) 115 % of control

O=C1C(c2ccccn2)=C(O)c2ccccc21
inactive: [1] 104 % of control | [2] 93 % of control | [3] 97 % of control

CCN(CC)CCNc1ccccc1
inactive: dose: 60.0 mg/kg/injection, schedule: Q01DX005 (ip), vehicle: saline 99 % of control | dose: 120.0 mg/kg/injection, schedule: Q01DX005 (ip), vehicle: saline 99 % of control

COc1cc(C2c3cc4c(cc3OC(C)(OC)C2C(C)=O)OCO4)cc(OC)c1OC (configuration not stated)
inactive: [4] 90 % of control | [5] 94 % of control | [6] 95 % of control

C1CC[N-]CC1.C1CC[N-]CC1.[Cl][Cd][Cl]
inactive: dose: 0.2 mg/kg/injection, schedule: Q01DX009 (ip), vehicle: water 95 % of control | dose: 0.39 mg/kg/injection, schedule: Q01DX009 (ip), vehicle: water 96 % of control | dose: 0.78 mg/kg/injection, schedule: Q01DX009 (ip), vehicle: other 90 % of control | dose: 0.78 mg/kg/injection, schedule: Q01DX009 (ip), vehicle: water 98 % of control | dose: 1.56 mg/kg/injection, schedule: Q01DX009 (ip), vehicle: other 90 % of control | dose: 3.13 mg/kg/injection, schedule: Q01DX009 (ip), vehicle: other 93 % of control

O=C(c1ccccc1)C(c1ccccc1)C(Cl)c1ccccc1 (configuration not stated)
inactive: [7] 100 % of control | [8] 97 % of control | dose: 100.0 mg/kg/injection, schedule: Q04DX003 (ip), vehicle: Klucel (hydroxypropylcellulose) (HPC) 98 % of control | [9] 99 % of control | dose: 200.0 mg/kg/injection, schedule: Q04DX003 (ip), vehicle: Klucel (hydroxypropylcellulose) (HPC) 100 % of control | dose: 400.0 mg/kg/injection, schedule: Q04DX003 (ip), vehicle: Klucel (hydroxypropylcellulose) (HPC) 100 % of control

C=C1C(=O)OC2C1C(OC(=O)/C(C)=C/C)CC1(CO1)C1C(O)C3OC3(C)C21O (configuration not stated)
inactive: dose: 25.0 mg/kg/injection, schedule: Q04DX002 (ip), vehicle: saline with Tween-80 117 % of control | dose: 50.0 mg/kg/injection, schedule: Q04DX002 (ip), vehicle: saline with Tween-80 117 % of control

CCOC(=O)c1nc(OCC)nc(OCC)c1C#CCO
inactive: dose: 12.5 mg/kg/injection, schedule: Q01DX009 (ip), vehicle: distilled water + Tween-80 95 % of control | dose: 25.0 mg/kg/injection, schedule: Q01DX009 (ip), vehicle: distilled water + Tween-80 93 % of control | dose: 50.0 mg/kg/injection, schedule: Q01DX009 (ip), vehicle: distilled water + Tween-80 102 % of control | dose: 100.0 mg/kg/injection, schedule: Q01DX009 (ip), vehicle: distilled water + Tween-80 98 % of control

O=C1OC2C(O)C(N(O)c3ccccc3)OC2[C@@H]1O (some centres not stated)
inactive: [4] 100 % of control | [5] 106 % of control | [6] 106 % of control

C=C1[C@@H](NC)CC[C@]23C[C@]24CC[C@]2(C)[C@@H]([C@H](C)NC)[C@H](O)C[C@@]2(C)[C@@H]4CC[C@@H]13
inactive: dose: 25.0 mg/kg/injection, schedule: Q01DX001 (ip), vehicle: saline with Tween-80 104 % of control | dose: 50.0 mg/kg/injection, schedule: Q01DX001 (ip), vehicle: saline with Tween-80 99 % of control | [10] 104 % of control

CCc1nc(N)nc(N)c1-c1ccc(NC2CCCCC2)c([N+](=O)[O-])c1
inactive: [4] 101 % of control | [5] 95 % of control | [6] 94 % of control

COc1ccc(C2CC(C)(N3CCCC3)Oc3cc4c(cc32)OCO4)c(OC)c1 (configuration not stated)
inactive: [11] 99 % of control | [12] 96 % of control | [13] 86 % of control

CC(=O)/C(C=NCC(C)(CN=C/C(C(C)=O)=C(/C)O)CN=C/C(C(C)=O)=C(/C)O)=C(\C)O (configuration not stated)
inactive: [7] 97 % of control | [8] 100 % of control | [9] 100 % of control

O=C(O)/C=C(/C(=O)O)C12CCN3CC4=CCOC5CC(=O)NC1C5C4CC32 (configuration not stated)
inactive: [14] 97 % of control | [15] 106 % of control | [16] 110 % of control

Cc1cccc(/C=N/Nc2nc3ccccc3s2)n1
inactive: dose: 6.25 mg/kg/injection, schedule: Q01DX005 (ip), vehicle: saline with Tween-80 90 % of control | dose: 12.5 mg/kg/injection, schedule: Q01DX005 (ip), vehicle: saline with Tween-80 89 % of control | [13] 99 % of control

CC(=O)O[C@@H]1C(=O)[C@]2(CO)C(C(OC(=O)c3ccccc3)C3(O)CC(O)C(C)=C1C3(C)C)[C@@]1(OC(C)=O)CO[C@H]1C[C@H]2O (some centres not stated)
inactive: dose: 0.26 mg/kg/injection, schedule: Q01DX009 (ip), vehicle: distilled water + alcohol 108 % of control | dose: 0.53 mg/kg/injection, schedule: Q01DX009 (ip), vehicle: distilled water + alcohol 106 % of control | dose: 1.07 mg/kg/injection, schedule: Q01DX009 (ip), vehicle: distilled water + alcohol 106 % of control | dose: 2.15 mg/kg/injection, schedule: Q01DX009 (ip), vehicle: distilled water + alcohol 105 % of control | dose: 4.3 mg/kg/injection, schedule: Q01DX009 (ip), vehicle: distilled water + alcohol 108 % of control

CC(=O)Oc1cccc2c1ccc1nonc12
inactive: [11] 88 % of control | [12] 88 % of control | [13] 88 % of control

C=CC1CN2CCC1CC2C(O)c1ccnc2ccc(OC)cc12 (configuration not stated) (tested in a mixture with another compound)
inactive: dose: 50.0 mg/kg/injection, schedule: Q01DX009 (ip), vehicle: saline with Tween-80 109 % of control | dose: 100.0 mg/kg/injection, schedule: Q01DX009 (ip), vehicle: saline with Tween-80 109 % of control

O=C(/C=C\c1ccc([N+](=O)[O-])cc1)c1ccccc(=O)c1O
inactive: dose: 12.5 mg/kg/injection, schedule: Q01DX001 (ip), vehicle: Klucel (hydroxypropylcellulose) (HPC) 95 % of control | dose: 25.0 mg/kg/injection, schedule: Q01DX001 (ip), vehicle: Klucel (hydroxypropylcellulose) (HPC) 100 % of control | dose: 50.0 mg/kg/injection, schedule: Q01DX001 (ip), vehicle: Klucel (hydroxypropylcellulose) (HPC) 99 % of control | dose: 100.0 mg/kg/injection, schedule: Q01DX001 (ip), vehicle: Klucel (hydroxypropylcellulose) (HPC) 98 % of control

CCOC(=O)/C=C1\CCCn2c1ncc(C(=O)OCC)c2=O
inactive: [14] 101 % of control | [15] 100 % of control | [16] 108 % of control

N#CC1C(=O)NC(=O)C(C#N)C1c1ccccc1 (configuration not stated)
inactive: [7] 102 % of control | [8] 101 % of control | [9] 100 % of control

COc1cc2nc(C)[nH]c(=O)c2cc1OC
inactive: [1] 109 % of control | [2] 90 % of control | [3] 99 % of control

Cc1ccc(O)c(CN2CCN(Cc3cc(C)ccc3O)CC2)c1
inactive: [14] 86 % of control | [15] 91 % of control | [16] 88 % of control

COc1cc(C(Nc2ccccn2)c2cc3c(cc2O)OCO3)cc(OC)c1OC (configuration not stated)
inactive: [4] 100 % of control | [5] 94 % of control | [6] 94 % of control

c1ccc(-c2nnc3nn4c(-c5ccccc5)cnnc4c3c2-c2ccccc2)cc1
inactive: [1] 93 % of control | [2] 91 % of control | [3] 90 % of control

CCN(CC)C(=O)Nc1ccc(O)c(C(=O)O)c1
inactive: [10] 100 % of control | dose: 200.0 mg/kg/injection, schedule: Q01DX001 (ip), vehicle: saline with Tween-80 100 % of control | dose: 400.0 mg/kg/injection, schedule: Q01DX001 (ip), vehicle: saline with Tween-80 100 % of control

CC(C)(C(=S)[S-])[P+](c1ccccc1)(c1ccccc1)c1ccccc1
inactive: [14] 96 % of control | [15] 92 % of control | [16] 88 % of control
